# Measured values from PubChem BioAssay (NCI).
#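 Tested at 5 concentrations; 48 h exposure; 96-well plates; endpoints linearly interpolated, else capped at highest concentration. At the TGI there is no net growth.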
# Tests used:
# Assay in all cases: NCI tumour cell line growth inhibition, 48 h
# LOX IMVI melanoma = test system: LOX IMVI melanoma
# UO-31 renal = test system: UO-31 renal
# HOP-62 NSCLC = test system: HOP-62 NSCLC
# OVCAR-5 ovarian = test system: OVCAR-5 ovarian
# OVCAR-8 ovarian = test system: OVCAR-8 ovarian
# HCT-116 colon = test system: HCT-116 colon
# EKVX NSCLC = test system: EKVX NSCLC
# NCI-H522 lung = test system: NCI-H522 lung
# OVCAR-4 ovarian = test system: OVCAR-4 ovarian
# CAKI-1 renal = test system: CAKI-1 renal
# MDA-N = test system: MDA-N
# KM20L2 colon = test system: KM20L2 colon
# DLD-1 colon = test system: DLD-1 colon
# MOLT-4 leukemia = test system: MOLT-4 leukemia
# HOP-92 NSCLC = test system: HOP-92 NSCLC
# MCF7 breast = test system: MCF7 breast
# SNB-19 CNS = test system: SNB-19 CNS
# SK-OV-3 ovarian = test system: SK-OV-3 ovarian
# SK-MEL-2 melanoma = test system: SK-MEL-2 melanoma
# SK-MEL-5 melanoma = test system: SK-MEL-5 melanoma
# SN12C renal = test system: SN12C renal
# KM12 colon = test system: KM12 colon
# HCC-2998 colon = test system: HCC-2998 colon
# A549 NSCLC = test system: A549 NSCLC
# DU-145 prostate = test system: DU-145 prostate
# SW-620 colon = test system: SW-620 colon
# SNB-78 CNS = test system: SNB-78 CNS
# IGROV1 ovarian = test system: IGROV1 ovarian
# LXFL 529 NSCLC = test system: LXFL 529 NSCLC
# UACC-62 melanoma = test system: UACC-62 melanoma
# M19-MEL melanoma = test system: M19-MEL melanoma
# A498 renal = test system: A498 renal
# DMS 273 small cell lung = test system: DMS 273 small cell lung
# XF 498 CNS = test system: XF 498 CNS
# MDA-MB-435 = test system: MDA-MB-435
# SF-539 CNS = test system: SF-539 CNS
# SNB-75 CNS = test system: SNB-75 CNS
# OVCAR-3 ovarian = test system: OVCAR-3 ovarian
# RXF 393 renal = test system: RXF 393 renal
# MALME-3M melanoma = test system: MALME-3M melanoma
# TK-10 renal = test system: TK-10 renal
# HL-60(TB) leukemia = test system: HL-60(TB) leukemia
# MDA-MB-231 breast = test system: MDA-MB-231 breast
# SR leukemia = test system: SR leukemia
# PC-3 prostate = test system: PC-3 prostate
# K-562 leukemia = test system: K-562 leukemia
# CCRF-CEM leukemia = test system: CCRF-CEM leukemia
# NCI-H23 lung = test system: NCI-H23 lung
# DMS 114 small cell lung = test system: DMS 114 small cell lung
# 786-0 renal = test system: 786-0 renal
# HT29 colon = test system: HT29 colon
# U251 CNS = test system: U251 CNS
# T-47D breast = test system: T-47D breast
# SF-268 CNS = test system: SF-268 CNS
# COLO 205 colon = test system: COLO 205 colon
# HOP-18 NSCLC = test system: HOP-18 NSCLC
# HCT-15 colon = test system: HCT-15 colon
# ACHN renal = test system: ACHN renal
# RXF-631 renal = test system: RXF-631 renal
# UACC-257 melanoma = test system: UACC-257 melanoma
# M14 melanoma = test system: M14 melanoma
# SK-MEL-28 melanoma = test system: SK-MEL-28 melanoma
# NCI-H460 lung = test system: NCI-H460 lung
# NCI-H226 lung = test system: NCI-H226 lung
# BT-549 breast = test system: BT-549 breast
# RPMI-8226 leukemia = test system: RPMI-8226 leukemia
# SF-295 CNS = test system: SF-295 CNS
# NCI/ADR-RES ovarian = test system: NCI/ADR-RES ovarian
# SN12K1 renal = test system: SN12K1 renal
# P388 leukemia = test system: P388 leukemia
# P388/ADR leukemia = test system: P388/ADR leukemia
compound,measurement,setting,value
Nc1nc(-c2ccccc2)c(Cl)c(-c2cc(Cl)ccc2O)n1,TGI,LOX IMVI melanoma,> 59.2 µM
same,TGI,UO-31 renal,46.6 µM
same,TGI,HOP-62 NSCLC,20.1 µM
same,TGI,OVCAR-5 ovarian,> 100 µM
same,TGI,OVCAR-8 ovarian,33.8 µM
same,TGI,HCT-116 colon,27.1 µM
same,TGI,EKVX NSCLC,> 100 µM
same,TGI,NCI-H522 lung,> 62.9 µM
same,TGI,OVCAR-4 ovarian,66.4 µM
same,TGI,CAKI-1 renal,47.2 µM
same,TGI,MDA-N,> 100 µM
same,TGI,KM20L2 colon,> 100 µM
same,TGI,DLD-1 colon,> 100 µM
same,TGI,MOLT-4 leukemia,> 100 µM
same,TGI,HOP-92 NSCLC,> 97.3 µM
same,TGI,MCF7 breast,> 100 µM
same,TGI,SNB-19 CNS,47 µM
same,TGI,SK-OV-3 ovarian,49.3 µM
same,TGI,SK-MEL-2 melanoma,99.8 µM
same,TGI,SK-MEL-5 melanoma,59.6 µM
same,TGI,SN12C renal,87.5 µM
same,TGI,KM12 colon,> 87.9 µM
same,TGI,HCC-2998 colon,> 100 µM
same,TGI,A549 NSCLC,71 µM
same,TGI,DU-145 prostate,> 100 µM
same,TGI,SW-620 colon,> 100 µM
same,TGI,SNB-78 CNS,> 82.7 µM
same,TGI,IGROV1 ovarian,54.7 µM
same,TGI,LXFL 529 NSCLC,> 73.1 µM
same,TGI,UACC-62 melanoma,> 100 µM
same,TGI,M19-MEL melanoma,> 100 µM
same,TGI,A498 renal,> 76.5 µM
same,TGI,DMS 273 small cell lung,90.9 µM
same,TGI,XF 498 CNS,47.5 µM
same,TGI,MDA-MB-435,> 100 µM
same,TGI,SF-539 CNS,66.5 µM
same,TGI,SNB-75 CNS,43.9 µM
same,TGI,OVCAR-3 ovarian,24.2 µM
same,TGI,RXF 393 renal,41.9 µM
same,TGI,MALME-3M melanoma,> 100 µM
same,TGI,TK-10 renal,42.6 µM
same,TGI,HL-60(TB) leukemia,> 100 µM
same,TGI,MDA-MB-231 breast,> 100 µM
same,TGI,SR leukemia,> 100 µM
same,TGI,PC-3 prostate,> 100 µM
same,TGI,K-562 leukemia,> 46.4 µM
same,TGI,CCRF-CEM leukemia,> 100 µM
same,TGI,NCI-H23 lung,67.2 µM
same,TGI,DMS 114 small cell lung,66.6 µM
same,TGI,786-0 renal,57.8 µM
same,TGI,HT29 colon,> 100 µM
same,TGI,U251 CNS,45.1 µM
same,TGI,T-47D breast,36.4 µM
same,TGI,SF-268 CNS,> 83.1 µM
same,TGI,COLO 205 colon,> 100 µM
same,TGI,HOP-18 NSCLC,> 94.3 µM
same,TGI,HCT-15 colon,> 100 µM
same,TGI,ACHN renal,21.5 µM
same,TGI,RXF-631 renal,> 100 µM
same,TGI,UACC-257 melanoma,> 100 µM
same,TGI,M14 melanoma,> 100 µM
same,TGI,SK-MEL-28 melanoma,> 100 µM
same,TGI,NCI-H460 lung,99.3 µM
same,TGI,NCI-H226 lung,61.3 µM
same,TGI,BT-549 breast,> 100 µM
same,TGI,RPMI-8226 leukemia,> 100 µM
same,TGI,SF-295 CNS,> 94.3 µM
CC1=NCCc2cc3[nH]c4ccccc4c3cc21,TGI,LOX IMVI melanoma,37.7 µM
same,TGI,UO-31 renal,54.9 µM
same,TGI,NCI/ADR-RES ovarian,83.8 µM
same,TGI,HOP-62 NSCLC,111 µM
same,TGI,OVCAR-5 ovarian,56.6 µM
same,TGI,OVCAR-8 ovarian,> 88.5 µM
same,TGI,HCT-116 colon,45.5 µM
same,TGI,EKVX NSCLC,95.8 µM
same,TGI,NCI-H522 lung,84.9 µM
same,TGI,OVCAR-4 ovarian,110 µM
same,TGI,CAKI-1 renal,57.6 µM
same,TGI,KM20L2 colon,45.7 µM
same,TGI,DLD-1 colon,73.1 µM
same,TGI,MOLT-4 leukemia,34.3 µM
same,TGI,HOP-92 NSCLC,5.45 µM
same,TGI,MCF7 breast,69.7 µM
same,TGI,SNB-19 CNS,116 µM
same,TGI,SK-OV-3 ovarian,62.6 µM
same,TGI,SK-MEL-2 melanoma,29.3 µM
same,TGI,SK-MEL-5 melanoma,28.1 µM
same,TGI,SN12C renal,62.9 µM
same,TGI,KM12 colon,78.8 µM
same,TGI,HCC-2998 colon,53.8 µM
same,TGI,A549 NSCLC,103 µM
same,TGI,SW-620 colon,52.5 µM
same,TGI,SNB-78 CNS,86.9 µM
same,TGI,IGROV1 ovarian,> 85.3 µM
same,TGI,UACC-62 melanoma,39.8 µM
same,TGI,M19-MEL melanoma,43.6 µM
same,TGI,A498 renal,46.1 µM
same,TGI,DMS 273 small cell lung,50.6 µM
same,TGI,XF 498 CNS,30.5 µM
same,TGI,SF-539 CNS,32 µM
same,TGI,SNB-75 CNS,70 µM
same,TGI,OVCAR-3 ovarian,114 µM
same,TGI,RXF 393 renal,23.4 µM
same,TGI,SN12K1 renal,44.6 µM
same,TGI,MALME-3M melanoma,22.3 µM
same,TGI,HL-60(TB) leukemia,37.6 µM
same,TGI,P388 leukemia,21.9 µM
same,TGI,K-562 leukemia,22.9 µM
same,TGI,CCRF-CEM leukemia,36.9 µM
same,TGI,NCI-H23 lung,83.8 µM
same,TGI,DMS 114 small cell lung,23.4 µM
same,TGI,P388/ADR leukemia,34.2 µM
same,TGI,HT29 colon,48.7 µM
same,TGI,U251 CNS,79 µM
same,TGI,SF-268 CNS,77.7 µM
same,TGI,COLO 205 colon,24.5 µM
same,TGI,HOP-18 NSCLC,50 µM
same,TGI,HCT-15 colon,78.4 µM
same,TGI,UACC-257 melanoma,24.6 µM
same,TGI,SK-MEL-28 melanoma,24.6 µM
same,TGI,NCI-H460 lung,37.1 µM
same,TGI,NCI-H226 lung,37.9 µM
same,TGI,RPMI-8226 leukemia,40.3 µM
same,TGI,SF-295 CNS,46.8 µM
